Measured values from patent publication US20070003636A1, “Statins (HMG-COA reductase inhibitors) as a novel type of immunomodulator, immunosuppressor and anti-inflammatory agent” (priority 2003, published 2007).

Columns and labels:
[1] = test system: CRP; conditions: cited from earlier work
[2] = test system: CD40; assay: IFN-γ induced CD40 expression on vascular endothelial cells (Western blot); format: cell-based, human; conditions: ECs; for CD40 expression with co-treatment by IFN-γ and statin: IFN-γ 500 U/ml, 24 hrs, Western blotting
Text: Cell isolation and culture. […] Human vascular smooth muscle (SMCs) cells were isolated from human saphenous veins and mammary arteries by explant outgrowth, and cultured in DMEM (BioWhittaker) supplemented with 1% L-glutamine (BioWhittaker), 1% penicillin/streptomycin, and 10% FCS. Both cell types were subcultured following trypsinization (0.5% trypsin (Worthington Biochemicals)/0.2% EDTA (EM Science)) in P100-culture dishes (Becton Dickinson).
Western blots analysis. Cells were harvested in ice-cold RIPA solubilization buffer, and total amounts of protein were determined using a bicinchoninic acid quantification assay (Pierce, Rockford, Ill.). Twenty μg of total protein/lane were separated by SDS/PAGE under reducing conditions and blotted to polyvinylidene difluoride membranes (Millipore Corp., Bedford, Mass.) using a semidry blotting apparatus (Bio-Rad, Hercules, Calif.). Blots were blocked overnight in 5% defatted dry milk/PBS/0.1% Tween, and then incubated for 1 hour at room temperature with primary antibody (1:40) (rabbit […] anti-CD40 Santa Cruz, San Diego, Calif.), or mouse monoclonal anti-human […] (1:5000) (Pharmingen) for control of loading. This was followed by a 1 hour incubation with secondary peroxidase-conjugated antibody (1:10,000), (Jackson Immunoresearch, West Grove, Pa.). […] Immunoreactivity was detected using the enhanced chemiluminescence detection method according to the manufacturer's instructions. (Amersham, Dübendorf Switzerland), and subsequent exposure of the membranes to x-ray film. Analysis of quantification of detection was performed using AIDA software.

[3] = test system: MHC class II; conditions: ECs, IFN-γ 500 U/ml 48 hrs; compared among Atorvastatin, Lovastatin, Pravastatin
Description: Cell isolation and culture. […] Flow cytometry. […] Data were analyzed using […] software (Becton Dickinson).

[4] = test system: CD40 mediated pathways; assay: CD40L induced cytokine release (IL-6, IL-8, MCP-1) from ECs, ELISA; format: cell-based, human; conditions: added to statin and CD154
Description: Cytokines assay. […] Experiments were performed in the presence of polymyxin B (1 μg/ml). Antibody binding was detected by adding substrate (R&D), and absorbance measured at 450 nm using a Dynatech plate reader. The amount of IL-6, IL-8 and MCP-1 detected was calculated from a standard curve prepared with the recombinant protein. Samples were assayed in duplicates.
To investigate the functional consequences of inhibition of CD40 expression by statins on Endothelial Cells activation by CD40L, secreted cytokines were analyzed such as Interleukin-6 (IL-6), interleukin-8 (IL-8), macrophages chemoattractant protein-1 (MCP-1). Addition of an anti-CD40LmAb blocked the induction of all three secreted cytokines in response to CD40 ligation.

Compound	CRP levels ([1]; 80 mg/day)	effect on biological markers of inflammation ([1]; in vivo)	effect on IFN-γ induced CD40 in the presence of L-mevalonate [2]	IFN-γ induction of CD40, dose dependence ([2]; IFN-γ 500 U/ml 24 hrs)	concentration range over which effect on CD40 was observed ([2]; IFN-γ 500 U/ml 24 hrs) [µM]	CD40 expression with co-treatment by IFN-γ and statin [2]	CD40 expression, treatment with statin alone ([2]; without IFN-γ)	potency as MHC class II repressor [3]	reversal of statin effect on cytokine secretion [4]
CC(C)c1c(C(=O)Nc2ccccc2)c(-c2ccccc2)c(-c2ccc(F)cc2)n1CC[C@@H](O)C[C@@H](O)CC(=O)O [Atorvastatin]	decrease in CRP levels	dose-dependent	markedly reduced	repressed this induction of CD40 in a dose-dependant manner	0.08 to 5	decreased	had an effect on CD40 expression	most powerful MHC class II repressor	
CC[C@H](C)C(=O)O[C@H]1C[C@@H](C)C=C2C=C[C@H](C)[C@H](CC[C@@H]3C[C@@H](O)CC(=O)O3)[C@H]21 [lovastatin, Lovastatin]						decreased			
L-mevalonate									significantly reverses the process
